Reference: patent US20050143296A1, “Extraction and utilization of cell growth-promoting peptides from silk protein” (priority 2003, published 2005)
Entries after “also recorded” stand apart in the source; their conditions may differ. Where a SMILES comes first, the peptide text is derived from it. Where no end group is shown, it is not given here.

Tests used:
[1] = Dissolution of synthetic peptides in PBS for coating; format: physicochemical; settings: about 1 mg peptide in 200 μl of PBS
Procedure: About 1 mg each of the synthetic peptides was dissolved in 200 μl of PBS. The dissolved peptide solutions were diluted with 70% ethanol to adjust to 0.025% and 0.0025% concentrations, and 1 ml each of these solutions were put in dishes and dried.
70% ethanol, put in a dish and dried.

human skin fibroblasts [2] = assay: Growth of human skin fibroblasts in dishes coated with silk fractions or peptides (low serum medium with LSGS, Alamer Blue viable cell number); format: cell-based; settings: for Growth rate (%): control = 100; for cell growth promotion (in words): human skin fibroblasts in coated dishes, compared to control without peptide
Procedure: Only 1 ml of 70% ethanol was added to dishes for control.
The cells used were human skin fibroblasts (originating from adult normal skin) purchased (frozen) from Sanko Junyaku Co., Ltd.
The medium was added at 2 ml per dish, and 80,000 cells were inoculated and cultured for 3 days.
The medium at 2 ml per dish and Alamer Blue (Iwaki Glass Co.) at 0.1 ml per dish were added and cultured for 2 hours at 37 degrees C., and then the reduced amount of Alamer Blue dye calculated from the absorbances at 570 nm and 600 nm was correlated with viable cell number.
Control dishes contained only 70% ethanol at 1 ml, followed by air-drying.
About 1 mg each of the synthetic peptides was dissolved in 200 μl of PBS.
The cells used were human skin fibroblasts (originating from adult normal skin) purchased (frozen) from Sanko Junyaku Co. Ltd.
The culture medium used was the low serum culture medium for human skin fibroblast growth purchased from Kurabo Industries Ltd.
The medium was added at 2 ml per dish, and ca. 80,000 cells were inoculated and cultured for 3 days.
Then, 0.1 ml of Alamer Blue (Iwaki Glass Co.) was added and cultured for 2 hours at 37 degrees C., and the reduced amount of Alamer Blue calculated from the absorbances at 570 nm and 600 nm was correlated with viable cell number.

human skin fibroblasts [3] = assay: Proliferation of human skin fibroblasts after 3-day culture in peptide-coated dishes (Medium 106S without LSGS); format: cell-based; settings: Table 9, peptide 0.025 μg/cm^2, no LSGS, no peptide = 100
Procedure: (§1) This method partly differs from the method in (3) Cell culture of Example 1.
(§2) In the present cell culture, the cells used were human skin fibroblasts (originating from adult normal skin) purchased (frozen) from Sanko Junyaku Co. Ltd.
(§3) The culture medium used was the low serum culture medium for human skin fibroblast growth purchased from Kurabo Industries Ltd. (Medium 106S 500 ml).
(§4) The medium 106S is a basal medium for skin fibroblasts.
(§5) LSGS (low serum growth supplement) was not used here.
In the measurement of proliferation, the viable cell number at 3 days after inoculation of cells into the medium was measured.
(§6) Besides the cell culture method, coating of peptides on cell culture dishes, measurement of viable cell number with Alamer Blue dye, and the like were carried out as described in Example 1.
(§7) In this case, the concentration of each peptide coated on dishes was 0.025 μg/cm^2.
The growth rate (%) in the case where no peptide was coated was set at 100.
It should be noted that the viable cell number in the control in 3-day culturing increased about 150% during the culture and the control value (100%) was based on the viable cell number after 3-day culture.
Accordingly, when there was no increase or decrease in the cell number after 3-day culturing, the growth rate would become about 70%.

human skin fibroblasts [4] = assay: Adhesion of human skin fibroblasts after 5 hours in peptide-coated dishes (Medium 106S without LSGS); format: cell-based; settings: Table 8; 5 hour-culture; peptide 0.025 μg/cm^2; no LSGS; no peptide = 100
Procedure: as §1, §2, §3, §4, §5
In the measurement of adhesion, the cells floating in the medium at 5 hours after inoculation of cells into the medium were removed, and the viable cell number adhering to the bottom of a dish was measured.
as §6, §7
The adhesion rate (%) in the case where no peptide was coated was set at 100.

human skin fibroblasts [5] = assay: Growth of human skin fibroblasts in dishes coated with silk fractions or peptides (low serum medium with LSGS, Alamer Blue viable cell number); format: cell-based; settings: for Growth rate (%): Table 3, gel filtration peaks of A-6, cultured for 2 days, control = 100; for growth rate relative to the growth of the control: after 2-day culture (Table 3)
[6] = Table 7, peptide concentration 0.025 μg/cm^2, 3-day culture
[7] = Table 5, synthetic peptide 0.0025%, 3-day culture
[8] = Table 5, synthetic peptide 0.025%, 3-day culture
[9] = Table 6, values of Tables 4 and 5 at higher peptide concentration (0.025%)

Molecule | Cell growth rate (%) (human skin fibroblasts [2]; [6]) | Growth rate (%) (human skin fibroblasts [3]) | Adhesion rate (%) (human skin fibroblasts [4]) | Cell growth rate (%) (human skin fibroblasts [2]; [9]) | further results
C[C@H](N)C(=O)N[C@@H](C)C(=O)N[C@@H](C)C(=O)N[C@@H](C)C(=O)N[C@@H](C)C(=O)N[C@@H](C)C(=O)N[C@@H](C)C(=O)N[C@@H](C)C(=O)N[C@@H](C)C(=O)N[C@@H](C)C(=O)O [AfH0, Ala Ala Ala Ala Ala Ala Ala Ala Ala Ala] |  |  |  |  | solubility (in words) [1]: hard to dissolve
N[C@@H](CCC(=O)O)C(=O)O [Glu, glutamic acid, reference compound] | 69 |  |  |  | 
C[C@H](NC(=O)CN)C(=O)NCC(=O)N[C@@H](C)C(=O)NCC(=O)N[C@@H](CO)C(=O)NCC(=O)N[C@@H](C)C(=O)NCC(=O)N[C@@H](C)C(=O)NCC(=O)N[C@@H](CO)C(=O)NCC(=O)N[C@@H](C)C(=O)NCC(=O)N[C@@H](C)C(=O)NCC(=O)N[C@@H](Cc1ccc(O)cc1)C(=O)NCC(=O)N[C@@H](C)C(=O)NCC(=O)N[C@@H](Cc1ccc(O)cc1)C(=O)O [SfHC-1] (H-GAGAGSGAGAGSGAGAGYGAGY-OH; N-terminus and C-terminus assumed) |  |  |  |  | solubility (in words) [1]: difficult to dissolve
C[C@H](NC(=O)CN)C(=O)NCC(=O)N[C@@H](C)C(=O)NCC(=O)N[C@@H](CO)C(=O)NCC(=O)N[C@@H](C)C(=O)N[C@@H](C)C(=O)N[C@@H](CO)C(=O)NCC(=O)N[C@@H](C)C(=O)NCC(=O)N[C@@H](C)C(=O)NCC(=O)N[C@@H](C)C(=O)NCC(=O)N[C@@H](C)C(=O)NCC(=O)N[C@@H](C)C(=O)NCC(=O)N[C@H](C(=O)O)[C@@H](C)O [SfHC-2] (H-GAGAGSGAASGAGAGAGAGAGT-OH; N-terminus and C-terminus assumed) |  |  |  |  | solubility (in words) [1]: difficult to dissolve
CC(C)[C@H](NC(=O)[C@H](CO)NC(=O)[C@H](CO)NC(=O)[C@H](C)NC(=O)[C@H](C)N)C(=O)N[C@@H](CO)C(=O)N[C@@H](CO)C(=O)N[C@@H](C)C(=O)N[C@@H](CO)C(=O)N[C@@H](CO)C(=O)N[C@@H](CCCNC(=N)N)C(=O)N[C@@H](CO)C(=O)N[C@@H](Cc1ccc(O)cc1)C(=O)N[C@@H](CC(=O)O)C(=O)N[C@@H](Cc1ccc(O)cc1)C(=O)N[C@@H](CO)C(=O)N[C@@H](CCCNC(=N)N)C(=O)N[C@@H](CCCNC(=N)N)C(=O)N[C@@H](CC(N)=O)C(=O)N[C@H](C(=O)N[C@@H](CCCNC(=N)N)C(=O)N[C@@H](CCCCN)C(=O)N[C@@H](CC(N)=O)C(=O)O)C(C)C [SfHE] (H-AASSVSSASSRSYDYSRRNVRKN-OH; N-terminus and C-terminus assumed) |  |  |  |  | solubility (in words) [1]: difficult to dissolve
DDGFVLDGGYDSE [AfH7] |  | 89 | 153 | 284 | Growth rate (%) (human skin fibroblasts [2]; [7]): 155 ± 5.3%; Growth rate (%) (human skin fibroblasts [2]; [8]): 284 ± 25.1%; cell growth promotion (in words) (human skin fibroblasts [2]): excellent cell growth promotion
DEDEDE | 322 |  | 229 |  | 
DEYVDN [AfH5] |  | 108 | 234 | 344 | Growth rate (%) (human skin fibroblasts [2]; [7]): 192 ± 11.3%; Growth rate (%) (human skin fibroblasts [2]; [8]): 344 ± 7.7%; cell growth promotion (in words) (human skin fibroblasts [2]): excellent cell growth promotion
EEEEEE | 346 |  |  |  | 
EEYEEY | 212 |  |  |  | 
EYEYEY | 207 |  |  |  | 
GSGAGGRGDGGYGSGSS [AfH3] |  | 69 | 174 | 194 | Growth rate (%) (human skin fibroblasts [2]; [7]): 111 ± 9.0%; Growth rate (%) (human skin fibroblasts [2]; [8]): 194 ± 24.5%
GSSGFGPYVAHGGYSGYEYAWSSESDFGT [SfHA] |  | 159 | 205 | 316 | Growth rate (%) (human skin fibroblasts [2]; Table 4, synthetic peptide 0.0025%, 3-day culture): 321 ± 6.2%; Growth rate (%) (human skin fibroblasts [2]; Table 4, synthetic peptide 0.025%, 3-day culture): 316 ± 5.7%
Glu Glu | 159 |  |  |  | 
Glu Glu Glu Glu (EEEE; printed: Glu Glu Glu Glu) | 231 |  |  |  | 
Glu Glu Glu Glu Glu Glu Glu Glu Glu Glu | 254 |  |  |  | 
NINDFDED [A-6-6] |  |  |  |  | Growth rate (%) (human skin fibroblasts [5]): 159 ± 6.6%; growth rate relative to the growth of the control (human skin fibroblasts [5]): 1.5 fold; cell growth promotion (in words) (human skin fibroblasts [2]): showed cell growth promotion
RRAGHDRAAGS [AfH4] |  | 96 | 151 | 133 | Growth rate (%) (human skin fibroblasts [2]; [7]): 113 ± 4.8%; Growth rate (%) (human skin fibroblasts [2]; [8]): 133 ± 8.7%
SGAGGSGGYGGYGSDS [AfH2] |  | 71 | 149 | 196 | Growth rate (%) (human skin fibroblasts [2]; [7]): 118 ± 14.7%; Growth rate (%) (human skin fibroblasts [2]; [8]): 196 ± 9.4%
Tyr Tyr | 113 |  |  |  | 
Tyr Tyr Tyr Tyr (YYYY; printed: Tyr Tyr Tyr Tyr) | 156 |  |  |  | 
VETIVLEEDPYGHEDIYEED [AfH6] |  | 77 | 135 | 264 | Growth rate (%) (human skin fibroblasts [2]; [7]): 152 ± 9.0%; Growth rate (%) (human skin fibroblasts [2]; [8]): 264 ± 9.0%; cell growth promotion (in words) (human skin fibroblasts [2]): higher cell growth promotion; also recorded: excellent cell growth promotion
VITTDSDGNE [A-6-2] |  |  |  |  | Growth rate (%) (human skin fibroblasts [5]): 153 ± 2.7%; growth rate relative to the growth of the control (human skin fibroblasts [5]): 1.5 fold; cell growth promotion (in words) (human skin fibroblasts [2]): showed cell growth promotion
YGWGDGGYGSDS [AfH1] |  | 94 | 169 | 396 | Growth rate (%) (human skin fibroblasts [2]; [7]): 179 ± 13.5%; Growth rate (%) (human skin fibroblasts [2]; [8]): 396 ± 4.0%; cell growth promotion (in words) (human skin fibroblasts [2]): excellent cell growth promotion
YYYYYY | 239 |  |  |  | 
